{"source": "patent US5620954A", "about": "“Peptide compositions and uses therefor” (Magainin Pharmaceuticals, Inc., priority 1995, dated 1997)", "assay_in_all_cases": "Antibacterial assay, minimal inhibitory concentration (MIC), microtiter broth dilution", "type_in_all_cases": "cell-based", "key": {"[1]": {"system": "S. aureus strain ATCC 25923", "settings": "S. aureus ATCC 25923; Mueller Hinton broth; 16-20 hours at 37° C.", "source_text": "(§1) Table I, which follows, indicates the Minimal Inhibitory Concentration (MIC) in μg/ml of Peptides (SEQ ID NO:1) through (SEQ ID NO:27 ) against S. aureus strain ATCC 25923, P. aeruginosa strain ATCC 27853, and E.coli ATCC strain 25922. (Legend) The procedure for the antibacterial assay is based upon the guidelines of the National Committee for Clinical Laboratory Standards, Document M7-T2, Volume 8, No. 8, 1988. Stock solutions of the hereinabove described peptides in accordance with the present invention are prepared at a concentration of 512 μg/ml in sterile deionized distilled water and stored at -70° C. The stock peptide solution is diluted in serial dilutions (1:2) down the wells of a microtiter plate so that the final concentrations of peptides in the wells are 0.25, 0.50, 1, 2, 4, 8, 16, 32, 64, 128, and 256 μg/ml. 1-5×10^5 CFUs/ml of either S. aureus ATCC 25923, E. coli ATCC 25922, or P. aeruginosa ATCC 27853 were added to the wells in full strength Mueller Hinton broth (BBL 11443) from a mid-log culture. The inoculum is standardized spectrophotometrically at 600 nm and is verified by colony counts. The plates are incubated for 16-20 hours at 37° C., and the minimal inhibitory concentration (MIC) for each peptide is determined. Minimal inhibitory concentration is defined as the lowest concentration of peptide which produces a clear well in the microtiter plate."}, "[2]": {"system": "P. aeruginosa strain ATCC 27853", "settings": "P. aeruginosa ATCC 27853; Mueller Hinton broth; 16-20 hours at 37° C.", "source_text": "as §1"}, "E.coli ATCC strain 25922": {"system": "E.coli ATCC strain 25922", "settings": "E. coli ATCC 25922; Mueller Hinton broth; 16-20 hours at 37° C.", "source_text": "as §1"}}, "data": [{"substance": "SEQ ID NO: 21: biologically active amphiphilic peptide (GLASLLGKALKAALKIGANMLGGSPQQ)", "values": [{"measurement": "Minimal Inhibitory Concentration (MIC), Activity, S. aureus", "setting": "[1]", "value": 64, "unit": "µg/mL"}, {"measurement": "Minimal Inhibitory Concentration (MIC), Activity, P. aeruginosa", "setting": "[2]", "value": 128, "unit": "µg/mL"}, {"measurement": "Minimal Inhibitory Concentration (MIC), Activity, E. coli", "setting": "E.coli ATCC strain 25922", "value": 32, "unit": "µg/mL"}]}, {"substance": "SEQ ID NO: 22: biologically active amphiphilic peptide (GFGSFLGKALKAALKIGANLLGGTPQQ)", "values": [{"measurement": "Minimal Inhibitory Concentration (MIC), Activity, S. aureus", "setting": "[1]", "value": 16, "unit": "µg/mL"}, {"measurement": "Minimal Inhibitory Concentration (MIC), Activity, P. aeruginosa", "setting": "[2]", "value": "16,32 μg/ml"}, {"measurement": "Minimal Inhibitory Concentration (MIC), Activity, E. coli", "setting": "E.coli ATCC strain 25922", "value": "8,16 μg/ml"}]}, {"substance": "SEQ ID NO: 23: biologically active amphiphilic peptide (GFAKFLGKALKAALKIGANLLGGTPQQ)", "values": [{"measurement": "Minimal Inhibitory Concentration (MIC), Activity, S. aureus", "setting": "[1]", "value": 8, "unit": "µg/mL"}, {"measurement": "Minimal Inhibitory Concentration (MIC), Activity, P. aeruginosa", "setting": "[2]", "value": "8,16 μg/ml"}, {"measurement": "Minimal Inhibitory Concentration (MIC), Activity, E. coli", "setting": "E.coli ATCC strain 25922", "value": "4,8 μg/ml"}]}, {"substance": "SEQ ID NO: 24: biologically active amphiphilic peptide (GFGKFLGKALKAALKIGANLLGGTPQQ)", "values": [{"measurement": "Minimal Inhibitory Concentration (MIC), Activity, S. aureus", "setting": "[1]", "value": 8, "unit": "µg/mL"}, {"measurement": "Minimal Inhibitory Concentration (MIC), Activity, P. aeruginosa", "setting": "[2]", "value": 16, "unit": "µg/mL"}, {"measurement": "Minimal Inhibitory Concentration (MIC), Activity, E. coli", "setting": "E.coli ATCC strain 25922", "value": "8,16 μg/ml"}]}, {"substance": "SEQ ID NO: 25: biologically active amphiphilic peptide (GFKKFLGKALKAALKIGANLLGGTPQQ)", "values": [{"measurement": "Minimal Inhibitory Concentration (MIC), Activity, S. aureus", "setting": "[1]", "value": "8,16 μg/ml"}, {"measurement": "Minimal Inhibitory Concentration (MIC), Activity, P. aeruginosa", "setting": "[2]", "value": 32, "unit": "µg/mL"}, {"measurement": "Minimal Inhibitory Concentration (MIC), Activity, E. coli", "setting": "E.coli ATCC strain 25922", "value": "8,32 μg/ml"}]}, {"substance": "SEQ ID NO: 26: biologically active amphiphilic peptide (GLASFLGKALKAALKIGANLLGGTPQQ)", "values": [{"measurement": "Minimal Inhibitory Concentration (MIC), Activity, S. aureus", "setting": "[1]", "value": "16,32 μg/ml"}, {"measurement": "Minimal Inhibitory Concentration (MIC), Activity, P. aeruginosa", "setting": "[2]", "value": "64,128 μg/ml"}, {"measurement": "Minimal Inhibitory Concentration (MIC), Activity, E. coli", "setting": "E.coli ATCC strain 25922", "value": "8,16 μg/ml"}]}, {"substance": "SEQ ID NO: 27: biologically active amphiphilic peptide (GLASLLGKALKAALKIGANLLGGTPQQ)", "values": [{"measurement": "Minimal Inhibitory Concentration (MIC), Activity, S. aureus", "setting": "[1]", "value": 32, "unit": "µg/mL"}, {"measurement": "Minimal Inhibitory Concentration (MIC), Activity, P. aeruginosa", "setting": "[2]", "value": 128, "unit": "µg/mL"}, {"measurement": "Minimal Inhibitory Concentration (MIC), Activity, E. coli", "setting": "E.coli ATCC strain 25922", "value": 32, "unit": "µg/mL"}]}]}
